In publication PMC5511861, “DS16570511 is a small-molecule inhibitor of the mitochondrial calcium uniporter” (Cell Death Discovery, 2017):

Tested on: Ca2+ uptake of pig heart mitochondria
Test: Ca2+ uptake assay using isolated pig heart mitochondria (atomic absorbance spectrometer)
Format: biochemical
Details: 100 μM CaCl2; read-out: IC50, inhibition of Ca2+ uptake of pig heart mitochondria
Experimental: We then asked whether DS16570511 inhibits Ca^2+ uptake in isolated mitochondria from animal heart. An atomic absorbance spectrometer-based detection method was employed to analyze intramitochondrial Ca^2+ levels. We prepared freshly isolated mitochondria from pig heart, and the mitochondria were incubated with 100 μM CaCl2.
(a) Effect of RuR on Ca^2+ uptake of pig heart mitochondria. […] Data are mean with S.E.M. from three independent samples. (b) Inhibition rate of RuR or DS16570511 on Ca^2+ uptake of pig heart mitochondria. Inhibition 0 or 100% is defined as a value of Ca^2+-untreated mitochondria or Ca^2+-treated mitochondria, respectively. Data are mean with S.E.M. from three independent samples. (c) Inhibition rate of RuR or DS16570511 on Ca^2+ uptake of rat heart mitochondria. Data are mean with S.E.M./variation from three or two independent samples for DS16570511 or RuR, respectively.
Mitochondria were isolated by using the mitochondria isolation kit and then dissolved in the swelling buffer. The protein concentration of the mitochondrial solution was 5 mg/ml. Thirty minutes after application of CaCl2 (final concentration of 100 μM) to the solution, the mitochondria were collected by centrifugation (3000 g) at 4 °C. The pellets were resuspended in the swelling buffer containing 1 μM RuR. After collection of the mitochondria by centrifugation (3000 g), the pellets were dried and dissolved by 40 μl of sulfuric acid at 95 °C.

SMILES: Cc1onc(-c2c(Cl)cccc2Cl)c1CNc1cccc(C(=O)c2cn(CCCC(=O)O)c3ccccc23)c1 [DS16570511]
- IC50: 15 µM
